Measured values taken from patent US12679878B2, “CRF2 receptor agonists and their use in therapy” (SANOFI, priority 2020, dated 2026).
In brackets after ≈: the same amount, converted by molar mass. Where two headings read alike, the source gives them in different places. Starred links: 1 amine or outer side, 2 acyl side, 3 side chain; linkers in the order of their positions; H or OH if unused. Non-standard residues stand in square brackets, D forms with d. Residues, ends and D or L forms follow the SMILES beside them. Groups on a side chain read outwards from the residue. *: point of attachment. C16 diacid = O=C(O)CCCCCCCCCCCCCCC(=O)*; γGlu = O=C(O)[C@H](CCC(=O)[*:2])N[*:1]; Aib = CC(C)(N)C(=O)O

Experiments:
human CRF2α receptor = molecular target: T1, human CRF2α receptor (Homo sapiens, UniProt Q13324); assay: cAMP agonism at human CRF2α receptor in TeloHEAC cells, FA modified peptides (Example 19.9); assay type: cell-based; settings: 0% HSA, relative to urocortin 2
T1 construct: expressed in transfected cells; host or cells: TeloHEAC
T1 sequence (Q13324 1-411): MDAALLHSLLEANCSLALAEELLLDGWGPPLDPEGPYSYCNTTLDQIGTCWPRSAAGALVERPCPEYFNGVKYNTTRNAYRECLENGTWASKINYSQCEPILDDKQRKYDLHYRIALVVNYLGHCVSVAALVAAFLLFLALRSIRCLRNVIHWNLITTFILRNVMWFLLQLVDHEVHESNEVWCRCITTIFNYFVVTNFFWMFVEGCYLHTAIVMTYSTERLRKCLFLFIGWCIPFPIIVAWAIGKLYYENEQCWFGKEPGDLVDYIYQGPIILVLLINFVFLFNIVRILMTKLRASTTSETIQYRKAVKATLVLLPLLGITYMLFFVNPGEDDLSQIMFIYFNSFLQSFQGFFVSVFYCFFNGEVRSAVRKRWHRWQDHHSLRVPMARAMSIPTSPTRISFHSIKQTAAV
In short: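 Efficacy and EC50 are referenced to 100 nM urocortin 2 as 100%, with cAMP measured as the 665/620 nm HTRF ratio after 1 h at room temperature. Compounds (0.5 mM DMSO stock, 16 twofold dilutions) acted 30 min at 37 °C on CRF2α-expressing TeloHEAC cells, buffer containing IBMX and 0% or 0.2% HSA.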

CRF1R receptor = molecular target: T2, CRF1R receptor (Homo sapiens, UniProt P34998); assay: cAMP activity at anti-target CRF1R, CHO-K1 cell line clone 2 (Example 19.10); assay type: cell-based; settings: for Emax: 100% = Sauvagine at 100 nM; for CRF1/CRF2 ratio: ratio of CRF1 EC50 to CRF2 EC50
T2 construct: host or cells: CHO-K1 clone 2
T2 sequence (P34998 24-415): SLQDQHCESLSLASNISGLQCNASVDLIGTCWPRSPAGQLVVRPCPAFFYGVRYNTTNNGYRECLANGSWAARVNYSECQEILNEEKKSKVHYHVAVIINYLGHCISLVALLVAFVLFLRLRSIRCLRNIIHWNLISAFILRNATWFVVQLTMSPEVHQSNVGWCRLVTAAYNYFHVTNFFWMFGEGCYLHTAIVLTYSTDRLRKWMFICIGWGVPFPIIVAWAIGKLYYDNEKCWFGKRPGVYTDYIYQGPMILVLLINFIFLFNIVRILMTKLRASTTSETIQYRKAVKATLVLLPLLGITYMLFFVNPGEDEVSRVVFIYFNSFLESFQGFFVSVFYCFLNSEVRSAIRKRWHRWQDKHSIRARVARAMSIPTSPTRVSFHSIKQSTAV
In short: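 A CRF1R-overexpressing CHO-K1 line (clone 2) was grown in F12/10% FBS/G418 and frozen in aliquots before use. The cAMP assay followed the preceding procedure, with 100% activation defined by Sauvagine at 100 nM.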

[1] = In vitro plasma stability, rat plasma (Example 19.11); assay type: in vitro ADME, Sprague Dawley rats; parameters: remaining at 2 h: dose or concentration left out as unconfirmed; settings: 37° C.; for remaining at 2 h: male, Sprague Dawley, rat, plasma
Method: (§1) In vitro plasma metabolic stability was studied in male Sprague Dawley rats and human. Test compound were incubated […] for 2 hours at 37° C. At each time point (0, 0.25, 1 and 2 h), samples were prepared for analysis by means of a single step protein precipitation technique by adding 150 μL of ethanol, 0.1% formic acid to 50 μL aliquots of plasma. Samples were mixed by vortex for homogeneity and then subjected to centrifugation at 14000 rpm for 15 min. The supernatant (100 μL) was collected, diluted with 100 μL of water, 0.1% formic acid and analyzed by LC-HRMS (TripleTOF 6600+, AB Sciex). For each test compound, the area ratios at each time point were compared to the 0 h area ratio and converted to a percentage remaining.

[2] = In vitro plasma stability, human plasma (Example 19.11); assay type: in vitro ADME; parameters: dose or concentration left out as unconfirmed; settings: 37° C.
Method: as §1

[3] = Buffer solubility by LC-UV, pH 7.4 phosphate and pH 4.5 acetate (Example 19.11); assay type: physicochemical; settings: target 10 mg/mL
Method: (§2) As for example 15 above, also the chemical stability of representative examples of these FA modified peptides has been assessed, using LC-UV instead of light scattering. Solubility and chemical stability were studied in 100 mM phosphate buffer (pH 7.4) and 100 mM acetate buffer (pH 4.5). Test compound powders were dissolved in both buffers at a target concentration of 10 mg/mL and incubated for 1 hour at room temperature. After centrifugation at 2500 rcf for 15 minutes, […] of supernatant was diluted with […] of the incubation buffer and analyzed by LC-UV (Acquity UPLC-DAD, Waters). Solubility was calculated by comparing the peak area of the test compound in the buffer sample with the peak area of the same compound dissolved at 0.5 mg/ml in water:acetonitrile 1:1, 0.1% formic acid.

[4] = Chemical stability as % loss by LC-UV, 28 days 40° C. vs 5° C. (Example 19.11); assay type: physicochemical
Method: as §2
From the centrifuged supernatant, two additional […] aliquots were collected and diluted with […] of incubation buffer. One aliquot was stored at 5° C., while the other was stored at 40° C. After 28 days, the samples were analyzed by LC-UV. Chemical stability was calculated as % loss using the following equations: • Chemical stability (as % loss)=[(purity after 28 days at 5° C.)−(purity after 28 days at 40° C.)]×100/(purity after 28 days at 5° C.) % purity=[(peak area compound)×100/(total peak area)]

[5] = 0% HSA, CRF1R CHO-K1 clone 2, read-out: EC50 [nM] 0% HSA
[6] = Table 20 side-to-side comparison, read-out: CRF1 EC50
[7] = pH 7.4, 100 mM phosphate buffer

| Structure (SMILES) | EC50 (human CRF2α receptor) [nM] | EC50 (CRF1R receptor; [5]) [nM] | Emax (CRF1R receptor; CRF1R CHO-K1 clone 2) [%] | EC50 (CRF1R receptor; [6]) [nM] | CRF1/CRF2 ratio (CRF1R receptor) | % remaining at 2 hours ([1]; 120 min) [%] | remaining at 2 h [1] [%] | remaining at 2 h [2] [%] | solubility at 1 h ([3]; pH 4.5, 100 mM acetate buffer) [µg/mL] | solubility at 1 h [3, 7] [µg/mL] | % loss (chemical stability) ([4]; pH 4.5) [%] | % loss (chemical stability) ([4]; pH 7.4) [%] |
| --- | --- | --- | --- | --- | --- | --- | --- | --- | --- | --- | --- | --- |
| CC[C@H](C)[C@H](N)C(=O)N[C@H](C(=O)N[C@@H](CC(C)C)C(=O)N[C@@H](CO)C(=O)N[C@@H](CC(C)C)C(=O)N[C@@H](CC(=O)O)C(=O)N[C@@H](C(=O)N1CCC[C@H]1C(=O)N[C@H](C(=O)N[C@@H](CCCCN)C(=O)N[C@@H](CC(C)C)C(=O)N[C@@H](CCCCNC(=O)CC[C@H](NC(=O)CCCCCCCCCCCCCCC(=O)O)C(=O)O)C(=O)N[C@@H](CCC(N)=O)C(=O)N[C@H](C(=O)N[C@@H](CC(C)C)C(=O)N[C@@H](CC(C)C)C(=O)N[C@@H](CCCCN)C(=O)N[C@@H](CCC(N)=O)C(=O)N[C@@H](CCC(=O)O)C(=O)N[C@@H](CCCNC(=N)N)C(=O)N[C@@H](CCC(N)=O)C(=O)N[C@@H](CCCCN)C(=O)NC(C)(C)C(=O)N[C@@H](CCC(N)=O)C(=O)N[C@@H](CCCNC(=N)N)C(=O)N[C@@H](CCC(=O)O)C(=O)N[C@@H](CCC(N)=O)C(=O)N[C@@H](C)C(=O)N[C@@H](CCC(=O)O)C(=O)N[C@@H](CCCCN)C(=O)N[C@@H](CC(N)=O)C(=O)N[C@@H](CCCCN)C(=O)N[C@@H](CCC(N)=O)C(=O)N[C@H](C(=O)N[C@@H](CC(C)C)C(=O)N[C@@H](C)C(=O)N[C@@H](CCC(N)=O)C(=O)N[C@H](C(N)=O)C(C)C)[C@@H](C)CC)[C@@H](C)CC)[C@@H](C)CC)C(C)C)C(C)C [compound 187] (H-IVLSLD[dV]PIKLK([γGlu-C16 diacid])QILLKQERQK[Aib]QREQAEKNKQILAQV-NH2) | 0.44 | > 100 | 43.8 | > 100 | >500 | 92 | 102 | 97 | 8200 (≈ 1690 µM) | 8800 (≈ 1810 µM) | 0 | 31 |
| CC[C@H](C)[C@H](N)C(=O)N[C@H](C(=O)N[C@@H](CC(C)C)C(=O)N[C@@H](CO)C(=O)N[C@@H](CC(C)C)C(=O)N[C@@H](CC(=O)O)C(=O)N[C@@H](C(=O)N1CCC[C@H]1C(=O)N[C@H](C(=O)N[C@@H](CCCCN)C(=O)N[C@@H](CC(C)C)C(=O)N[C@@H](CCCCNC(=O)CC[C@H](NC(=O)CCCCCCCCCCCCCCC(=O)O)C(=O)O)C(=O)N[C@@H](CCC(N)=O)C(=O)N[C@H](C(=O)N[C@@H](CC(C)C)C(=O)N[C@@H](CC(C)C)C(=O)N[C@@H](CCCCN)C(=O)N[C@@H](CCC(N)=O)C(=O)N[C@@H](CCC(=O)O)C(=O)N[C@@H](CCCNC(=N)N)C(=O)N[C@@H](CCC(N)=O)C(=O)N[C@@H](CCCCN)C(=O)N[C@@H](CCCCN)C(=O)NC(C)(C)C(=O)N[C@@H](CCCNC(=N)N)C(=O)N[C@@H](CCC(N)=O)C(=O)N[C@@H](CCCCN)C(=O)N[C@@H](C)C(=O)N[C@@H](CCC(=O)O)C(=O)N[C@@H](CCCCN)C(=O)N[C@@H](CC(N)=O)C(=O)N[C@@H](CCCCN)C(=O)N[C@@H](CCC(N)=O)C(=O)N[C@H](C(=O)N[C@@H](CC(C)C)C(=O)N[C@@H](C)C(=O)N[C@@H](CCC(N)=O)C(=O)N[C@H](C(N)=O)C(C)C)[C@@H](C)CC)[C@@H](C)CC)[C@@H](C)CC)C(C)C)C(C)C [compound 189] (H-IVLSLD[dV]PIKLK([γGlu-C16 diacid])QILLKQERQKK[Aib]RQKAEKNKQILAQV-NH2; N-terminus assumed) | 3.49 | > 100 | 15 | > 100 | >500 | – | 101 | 97 | 9000 (≈ 1860 µM) | 6300 (≈ 1300 µM) | 0 | 48 |
| CC[C@H](C)[C@H](N)C(=O)N[C@H](C(=O)N[C@@H](CC(C)C)C(=O)N[C@@H](CO)C(=O)N[C@@H](CC(C)C)C(=O)N[C@@H](CC(=O)O)C(=O)N[C@@H](C(=O)N1CCC[C@H]1C(=O)N[C@H](C(=O)NCC(=O)N[C@@H](CC(C)C)C(=O)N[C@@H](CCCCNC(=O)CC[C@H](NC(=O)CCCCCCCCCCCCCCC(=O)O)C(=O)O)C(=O)N[C@@H](CCC(N)=O)C(=O)N[C@H](C(=O)N[C@@H](CC(C)C)C(=O)N[C@@H](CC(C)C)C(=O)N[C@@H](CCCCN)C(=O)N[C@@H](CCC(N)=O)C(=O)N[C@@H](CCC(=O)O)C(=O)N[C@@H](CCCNC(=N)N)C(=O)N[C@@H](CCC(N)=O)C(=O)N[C@@H](CCCCN)C(=O)N[C@@H](CCCCN)C(=O)NC(C)(C)C(=O)N[C@@H](CCCNC(=N)N)C(=O)N[C@@H](CCC(=O)O)C(=O)N[C@@H](CCC(N)=O)C(=O)N[C@@H](C)C(=O)N[C@@H](CCC(=O)O)C(=O)N[C@H](C(=O)N[C@@H](CC(N)=O)C(=O)N[C@@H](CCCCN)C(=O)N[C@@H](CCC(N)=O)C(=O)N[C@H](C(=O)N[C@@H](CC(C)C)C(=O)N[C@@H](C)C(=O)N[C@@H](CCC(N)=O)C(=O)N[C@H](C(N)=O)C(C)C)[C@@H](C)CC)[C@@H](C)O)[C@@H](C)CC)[C@@H](C)CC)C(C)C)C(C)C [compound 194] (H-IVLSLD[dV]PIGLK([γGlu-C16 diacid])QILLKQERQKK[Aib]REQAETNKQILAQV-NH2; N-terminus assumed) | 0.11 | > 100 | 21.6 | – | – | – | 85 | 101 | 7300 (≈ 1540 µM) | 700 (≈ 147 µM) | – | – |
